This test has as its target T1, Mac-1 (Homo sapiens, UniProt P05107+P11215).
T1 construct: isolate neutrophils from ethylenediaminetetraacetic acid (EDTA)-treated venous blood obtained from healthy human volunteers; endogenous in cells; host or cells: human neutrophils (PMN) isolated from venous blood of healthy volunteers
In words: Human neutrophil Mac-1 adhesion assay (fMLP-stimulated PMN adhesion to KLH-coated plates). The format is cell-based. The conditions noted are these: human neutrophils, read-out: percent drug inhibition vs. stimulus control.

Each structure is given as a SMILES string.

T1 sequence (P05107 23-769, other chains not shown): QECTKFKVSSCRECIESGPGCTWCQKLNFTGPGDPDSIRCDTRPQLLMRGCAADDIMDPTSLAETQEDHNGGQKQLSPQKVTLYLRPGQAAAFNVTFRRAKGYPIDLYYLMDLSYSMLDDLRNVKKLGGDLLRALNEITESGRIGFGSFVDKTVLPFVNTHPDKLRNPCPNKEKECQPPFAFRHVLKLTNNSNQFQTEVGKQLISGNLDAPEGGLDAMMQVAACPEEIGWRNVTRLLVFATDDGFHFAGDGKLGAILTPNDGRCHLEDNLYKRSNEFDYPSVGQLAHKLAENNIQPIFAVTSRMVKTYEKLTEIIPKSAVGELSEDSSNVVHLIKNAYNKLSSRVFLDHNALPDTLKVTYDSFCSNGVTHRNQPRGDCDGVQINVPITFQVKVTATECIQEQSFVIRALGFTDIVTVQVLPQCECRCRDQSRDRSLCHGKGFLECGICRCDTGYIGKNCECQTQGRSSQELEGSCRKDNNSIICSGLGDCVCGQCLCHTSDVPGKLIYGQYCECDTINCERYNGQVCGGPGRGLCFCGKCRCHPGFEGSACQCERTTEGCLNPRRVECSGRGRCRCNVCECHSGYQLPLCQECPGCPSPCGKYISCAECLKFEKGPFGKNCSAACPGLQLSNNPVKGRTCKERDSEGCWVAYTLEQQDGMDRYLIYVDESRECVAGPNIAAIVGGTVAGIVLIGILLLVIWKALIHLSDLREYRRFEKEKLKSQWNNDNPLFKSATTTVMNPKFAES
Method: Protocol for Human Neutrophil Mac-1 Adhesion Assay
Namely, we utilized Ferrante and Thong's methodology to isolate neutrophils from ethylenediaminetetraacetic acid (EDTA)-treated venous blood obtained from healthy human volunteers. Keyhole limpet hemocyanin (KLH) coated microtiter plates were prepared as follows:
All pipetting was automated using the Cetus Pro/Pette (Perkin-Elmer; division of Applied Biosystems, Foster, Calif.). KLH, Megathura crenulata; Calbiochem-Novabiochem, La Jolla, Calif., was prepared at a concentration of 0.5 mg/mL in Dulbecco's PBS phosphate buffered saline (PBS) with Ca^++, pH 7.2 (DPBS).
Microtiter plates are prewashed with 50% EtOH for 1 hour at 37° C., then drained and blotted to dryness. Then 0.3 mL KLH solution was pipetted into each well of the 96 well microtiter plate, covered and incubated overnight at 37° C. […]
a. mean unstimulated cell control OD is determined and subtracted from all other values b. mean net stimulated, e.g., FMLP, control values are determined c. mean drug values are determined and percent drug inhibition vs. stimulus control are calculated as follows: [formula] d. IC50 determinations, plotting logdose vs. percent inhibition, are determined by linear regression analysis using the least squares method.

For `CC(C)Oc1c(C(=O)Nc2nnn[nH]2)sc2c1CS(=O)(=O)CC2` [Example 6, 3-Isopropoxy-5,5-dioxo-6,7-dihydro-4H-thieno[3,2-c]thiopyran-2-carboxylic acid (1H-tetrazol-5-yl) amide], the inhibition at 33 µM stood at 38%.

As for `CC(C)Oc1c(C(=O)Nc2nnn[nH]2)sc2c1CCC2` [Example 2, 3-Isopropoxy-5,6-dihydro-4H-cyclopenta[b]thiophene-2-carboxylic acid (1H-tetrazol-5-yl)-amide], the inhibition at 33 µM was found to be 27%.

One may read the inhibition as how much of the control response was suppressed.

Source of the values: patent US5464855A, “Thiophene-2-carboxamidotetrazoles and pharmaceutical use thereof” (Warner-Lambert Company, priority 1994, dated 1995).
